According to patent US20080269170A1, “Novel 2,4-Dianilinopyrimidine Derivatives, the Preparation Thereof, Their Use as Medicaments, Pharmaceutical Compositions and, in Particular, as IKK Inhibitors” (sanofi-aventis, priority 2005, published 2008):
Where a name gives a salt, the structure may show the parent alone.

| melting point [°C] | Structure (SMILES) |
| --- | --- |
| 154 | CCN(C1CCN(C)CC1)S(=O)(=O)c1ccc(Nc2nccc(Nc3ccc(F)cc3)n2)cc1 [Example 149, 4-({4-[(4-Fluorophenyl)amino]pyrimidin-2-yl}amino)-N-ethyl-N-(1-methylpiperidin-4-yl)benzene-sulfonamide] |
| 88 to 90 | CCOP(=O)(CCN1CCC(N(CCN)S(=O)(=O)c2ccc(Nc3nccc(Nc4ccc(F)c(F)c4)n3)cc2)CC1)OCC |
| 164 to 165 | Cc1cc(Nc2ccnc(Nc3ccc(S(=O)(=O)N(C)C4CCC(F)(F)CC4)cc3)n2)ccc1F [Example 137, N-(4,4-Difluorocyclohexyl)-4-[4-(4-fluoro-3-methylphenylamino)pyrimidin-2-ylamino]-N-methyl-benzenesulfonamide] |
| 129 to 131 | CN(C1CCN(Cc2ccc(F)cc2)CC1)S(=O)(=O)c1ccc(Nc2nccc(Nc3ccc(F)cc3)n2)cc1 [Example 33, N-[1-(4-Fluorobenzyl)piperidin-4-yl]-4-[4-(4-fluorophenylamino)pyrimidin-2-ylamino]-N-methyl-benzenesulfonamide] |
| 172 to 173 | CN(C1CCN(Cc2csnn2)CC1)S(=O)(=O)c1ccc(Nc2nccc(Nc3ccc(F)c(F)c3)n2)cc1 [Example 165, 4-({4-[(3,4-Difluorophenyl)amino]pyrimidin-2-yl}amino)-N-methyl-N-(1-{[1-(1,2,3)thiadiazol-4-yl]methyl}piperidin-4-yl)benzenesulfonamide] |
| 171 | CSCCNC1CCC(N(C)S(=O)(=O)c2ccc(Nc3nccc(Nc4ccc(F)cc4)n3)cc2)CC1 (stereo not drawn) [Example 145, 4-({4-[(4-Fluorophenyl)amino]pyrimidin-2-yl}amino)-N-methyl-N-[4-trans(2-methylsulfanylethyl-amino)cyclohexyl]benzenesulfonamide] |
| 203 | CN(C1CCC(=O)CC1)S(=O)(=O)c1ccc(Nc2nccc(Nc3ccc(F)cc3)n2)cc1 [Example 118, 4-({4-[(4-Fluorophenyl)amino]pyrimidin-2-yl}amino)-N-methyl-N-(4-oxocyclohexyl)benzenesulfonamide] |
| 205 to 210 | CN1CCC(N(C)S(=O)(=O)c2ccc(Nc3nccc(Nc4ccc(F)cc4)n3)cc2)CC1 [Example 1, 4-[4-(4-Fluorophenylamino)pyrimidin-2-ylamino]-N-methyl-N-(1-methylpiperidin-4-yl)benzenesulfonamide] |
| 181 to 183 | CN1CCC(N(C)S(=O)(=O)c2ccc(Nc3nccc(Nc4ccc(F)c(F)c4)n3)cc2)CC1 [Example 11, 4-[4-(3,4-Difluorophenylamino)pyrimidin-2-ylamino]-N-methyl-N-(1-methylpiperidin-4-yl)benzene-sulfonamide] |
| 133 | CCOP(=O)(CCN1CCC(NS(=O)(=O)c2ccc(Nc3nccc(Nc4ccc(F)c(F)c4)n3)cc2)CC1)OCC |
| 184 | Cc1cc(Nc2ccnc(Nc3ccc(S(=O)(=O)N(Cc4ccco4)C4CCC(=O)CC4)cc3)n2)ccc1F [Example 168] |
| 225 | Cc1cc(Nc2ccnc(Nc3ccc(S(=O)(=O)N(CCN)C4CCN(CC(F)(F)F)CC4)cc3)n2)ccc1F (as salt: hydrochloride) |
| 215 to 220 | Cc1cc(Nc2ccnc(Nc3ccc(S(=O)(=O)N(C)C4CCNCC4)cc3)n2)ccc1F (as salt: hydrochloride) |
| 230 to 232 | NCCN(C1CCN(Cc2ccccc2)CC1)S(=O)(=O)c1ccc(Nc2nccc(Nc3ccc(F)cc3)n2)cc1 (as salt: hydrochloride) |
| 125 to 128 | CN(C1CCN(C2CC2)CC1)S(=O)(=O)c1ccc(Nc2nccc(Nc3ccc(F)cc3)n2)cc1 [Example 150, N-(1-Cyclopropylpiperidin-4-yl)-4-({4-[(4-fluorophenyl)amino]pyrimidin-2-yl}amino)-N-methyl-benzenesulfonamide] |
| 189 | CN1CCC(N(CC2CCCO2)S(=O)(=O)c2ccc(Nc3nccc(Nc4ccc(F)cc4)n3)cc2)CC1 (racemic) [Example 154] |
